# Reference: article PMC5218480 (PLoS ONE, 2017)
# System: MV-4-11 cells
# Experiment: Gene expression microarray analysis (Affymetrix PrimeView) and GSEA
# Assay type: cell-based, human
# Design: RFU PODN (11730768_x_at) / Fold change /veh PODN (11730768_x_at) / RFU LINC00158 (11744669_a_at) / Fold change /veh LINC00158 (11744669_a_at) / RFU DUSP10 (11751237_a_at) / Fold change /veh DUSP10 (11751237_a_at) / RFU ID3 (11757404_x_at) / Fold change /veh ID3 (11757404_x_at) / RFU PLEKHG5 (11737974_s_at) / Fold change /veh PLEKHG5 (11737974_s_at) / RFU LRRC4B (11730491_at) / Fold change /veh LRRC4B (11730491_at) / RFU GIMAP4 (11747438_a_at) / Fold change /veh GIMAP4 (11747438_a_at) / RFU KRT8 (11758183_x_at) / Fold change /veh KRT8 (11758183_x_at) / RFU CNN1 (11734310_a_at) / Fold change /veh CNN1 (11734310_a_at) / RFU VPS37D (11726825_at) / Fold change /veh VPS37D (11726825_at) / RFU C10orf10 (11716522_x_at) / Fold change /veh C10orf10 (11716522_x_at) / RFU KIR2DL2 /// KIR2DL4 /// KIR2DL5A /// KIR2DL5B /// KIR2DS1 /// KIR2DS2 /// KIR2DS3 /// KIR2DS4 /// KIR3DL3 /// KIR3DL3 /// KIR3DS1 (11738374_at) / Fold change /veh KIR2DL2 /// KIR2DL4 /// KIR2DL5A /// KIR2DL5B /// KIR2DS1 /// KIR2DS2 /// KIR2DS3 /// KIR2DS4 /// KIR3DL3 /// KIR3DL3 /// KIR3DS1 (11738374_at) / RFU C1QL1 (11718748_at) / Fold change /veh C1QL1 (11718748_at) / RFU TMPRSS4 (11747572_a_at) / Fold change /veh TMPRSS4 (11747572_a_at) / RFU HAMP (11756126_x_at) / Fold change /veh HAMP (11756126_x_at) / RFU RNFT2 (11725882_a_at) / Fold change /veh RNFT2 (11725882_a_at) / RFU NR4A2 (11747474_a_at) / Fold change /veh NR4A2 (11747474_a_at) / RFU ABCC12 (11746883_a_at) / Fold change /veh ABCC12 (11746883_a_at) / RFU TMEM136 (11760407_x_at) / Fold change /veh TMEM136 (11760407_x_at) / RFU CLDN22 /// WWC2 (11732394_at) / Fold change /veh CLDN22 /// WWC2 (11732394_at) / RFU HLA-DPB1 (11760878_x_at) / Fold change /veh HLA-DPB1 (11760878_x_at) / RFU SPINT1 (11716480_a_at) / Fold change /veh SPINT1 (11716480_a_at) / RFU GAP43 (11754022_s_at) / Fold change /veh GAP43 (11754022_s_at) / RFU A4GNT (11735810_at) / Fold change /veh A4GNT (11735810_at) / RFU PRB3 (11715151_x_at) / Fold change /veh PRB3 (11715151_x_at) / RFU TUBB4B (11761932_at) / Fold change /veh TUBB4B (11761932_at) / RFU CAPN14 (11732068_a_at) / Fold change /veh CAPN14 (11732068_a_at) / RFU TMCC2 (11721928_a_at) / Fold change /veh TMCC2 (11721928_a_at) / RFU IRGQ (11745062_a_at) / Fold change /veh IRGQ (11745062_a_at) / RFU FAM174B (11720279_a_at) / Fold change /veh FAM174B (11720279_a_at) / RFU TMPRSS4 (11748680_a_at) / Fold change /veh TMPRSS4 (11748680_a_at) / RFU FAM212B (11763350_a_at) / Fold change /veh FAM212B (11763350_a_at) / RFU PLEKHG5 (11743358_a_at) / Fold change /veh PLEKHG5 (11743358_a_at) / RFU ZSCAN30 (11745921_a_at) / Fold change /veh ZSCAN30 (11745921_a_at) / RFU CMKLR1 (11741424_a_at) / Fold change /veh CMKLR1 (11741424_a_at) / RFU LOC101060620 /// MAPK8IP1 (11723275_at) / Fold change /veh LOC101060620 /// MAPK8IP1 (11723275_at) / RFU SPTSSB (11747773_x_at) / Fold change /veh SPTSSB (11747773_x_at) / RFU PRSS12 (11739890_at) / Fold change /veh PRSS12 (11739890_at) / RFU BIN1 (11741810_x_at) / Fold change /veh BIN1 (11741810_x_at) / RFU WNT11 (11732464_a_at) / Fold change /veh WNT11 (11732464_a_at) / RFU C10orf10 (11716521_a_at) / Fold change /veh C10orf10 (11716521_a_at) / RFU C5orf56 (11738089_at) / Fold change /veh C5orf56 (11738089_at) / RFU CYB561 (11721691_x_at) / Fold change /veh CYB561 (11721691_x_at) / RFU ANKRD19P (11752326_a_at) / Fold change /veh ANKRD19P (11752326_a_at) / RFU OR2T12 /// OR2T33 /// OR2T8 (11738714_s_at) / Fold change /veh OR2T12 /// OR2T33 /// OR2T8 (11738714_s_at) / RFU VCAN (11748164_a_at) / Fold change /veh VCAN (11748164_a_at) / RFU JSRP1 (11732532_at) / Fold change /veh JSRP1 (11732532_at) / RFU KRTAP10-11 (11738290_x_at) / Fold change /veh KRTAP10-11 (11738290_x_at) / RFU MYO3A (11730013_a_at) / Fold change /veh MYO3A (11730013_a_at) / RFU EBF3 (11725865_a_at) / Fold change /veh EBF3 (11725865_a_at) / RFU CAMK2N1 (11719241_x_at) / Fold change /veh CAMK2N1 (11719241_x_at) / RFU C5orf56 (11738088_a_at) / Fold change /veh C5orf56 (11738088_a_at) / RFU OLFML3 (11715873_a_at) / Fold change /veh OLFML3 (11715873_a_at) / RFU LOC100653217 /// NTM (11731650_a_at) / Fold change /veh LOC100653217 /// NTM (11731650_a_at) / RFU MAPK11 (11762145_a_at) / Fold change /veh MAPK11 (11762145_a_at) / RFU FIZ1 (11724087_x_at) / Fold change /veh FIZ1 (11724087_x_at) / RFU OASL (11726364_x_at) / Fold change /veh OASL (11726364_x_at) / RFU SOX15 (11748057_x_at) / Fold change /veh SOX15 (11748057_x_at) / RFU CD79A (11719716_a_at) / Fold change /veh CD79A (11719716_a_at) / RFU HIST1H1D (11736915_at) / Fold change /veh HIST1H1D (11736915_at) / RFU CASKIN2 (11723855_a_at) / Fold change /veh CASKIN2 (11723855_a_at) / RFU LOC730098 (11760151_x_at) / Fold change /veh LOC730098 (11760151_x_at) / RFU OR4N2 (11742367_at) / Fold change /veh OR4N2 (11742367_at) / RFU PRRT2 (11749266_a_at) / Fold change /veh PRRT2 (11749266_a_at) / RFU SNX32 (11753110_a_at) / Fold change /veh SNX32 (11753110_a_at) / RFU CDHR5 (11726645_a_at) / Fold change /veh CDHR5 (11726645_a_at) / RFU RCAN1 (11760418_a_at) / Fold change /veh RCAN1 (11760418_a_at) / RFU FAM167A (11723789_a_at) / Fold change /veh FAM167A (11723789_a_at) / RFU FAM26E (11764081_at) / Fold change /veh FAM26E (11764081_at) / RFU ISYNA1 (11749810_s_at) / Fold change /veh ISYNA1 (11749810_s_at) / RFU ACY1 (11761880_at) / Fold change /veh ACY1 (11761880_at) / RFU 11764098_at / Fold change /veh 11764098_at / RFU SAMD14 (11745864_x_at) / Fold change /veh SAMD14 (11745864_x_at) / RFU NPB (11741838_a_at) / Fold change /veh NPB (11741838_a_at) / RFU TMPRSS6 (11731388_a_at) / Fold change /veh TMPRSS6 (11731388_a_at) / RFU KRTAP10-2 (11738614_at) / Fold change /veh KRTAP10-2 (11738614_at) / RFU ARHGAP8 /// PRR5-ARHGAP8 (11727945_x_at) / Fold change /veh ARHGAP8 /// PRR5-ARHGAP8 (11727945_x_at) / RFU KRTAP5-7 /// NADSYN1 (11734609_at) / Fold change /veh KRTAP5-7 /// NADSYN1 (11734609_at) / RFU RASL12 (11751679_a_at) / Fold change /veh RASL12 (11751679_a_at) / RFU CDKN2B (11736163_a_at) / Fold change /veh CDKN2B (11736163_a_at) / RFU PRF1 (11729649_at) / Fold change /veh PRF1 (11729649_at) / RFU, ZNF638 /// ZNF638-IT1 / Fold change vs veh, ZNF638 /// ZNF638-IT1 / RFU, PANK3 / Fold change vs veh, PANK3 / RFU, SH3YL1 / Fold change vs veh, SH3YL1 / RFU, ZEB2 / Fold change vs veh, ZEB2 / RFU, NRIP1 / Fold change vs veh, NRIP1 / RFU, PTTG1IP / Fold change vs veh, PTTG1IP / RFU, CAPN2 / Fold change vs veh, CAPN2 / RFU, MED14 / Fold change vs veh, MED14 / RFU, SNORA58 / Fold change vs veh, SNORA58 / RFU, C1orf63 / Fold change vs veh, C1orf63 / RFU, LRRFIP1 / Fold change vs veh, LRRFIP1 / RFU, NDUFAF7 / Fold change vs veh, NDUFAF7 / RFU, SLC12A2 / Fold change vs veh, SLC12A2 / RFU, IBTK / Fold change vs veh, IBTK / RFU, ESF1 / Fold change vs veh, ESF1 / Fold change vs veh, TMEM50B / RFU, TAOK1 / Fold change vs veh, TAOK1 / RFU, ACBD3 / Fold change vs veh, ACBD3 / RFU, TMA16 / Fold change vs veh, TMA16 / RFU, RWDD3 / Fold change vs veh, RWDD3 / RFU, BCAT1 / Fold change vs veh, BCAT1 / RFU, EDEM3 / Fold change vs veh, EDEM3 / RFU, TMEM33 / Fold change vs veh, TMEM33 / RFU, WDR75 / Fold change vs veh, WDR75 / RFU, AHCTF1 / Fold change vs veh, AHCTF1 / RFU, TFRC / Fold change vs veh, TFRC / RFU, ZDHHC17 / Fold change vs veh, ZDHHC17 / RFU, NOM1 / Fold change vs veh, NOM1 / RFU, ARL8B / Fold change vs veh, ARL8B / RFU, ZBTB11 / Fold change vs veh, ZBTB11 / RFU, TAMM41 / Fold change vs veh, TAMM41 / RFU, KIAA1704 /// LOC100996395 / Fold change vs veh, KIAA1704 /// LOC100996395 / RFU, ING1 / Fold change vs veh, ING1 / RFU, TRMT61B / Fold change vs veh, TRMT61B / RFU, FUBP3 / Fold change vs veh, FUBP3 / RFU, TP53 / Fold change vs veh, TP53 / RFU, TNKS2 / Fold change vs veh, TNKS2 / RFU, ZFP14 / Fold change vs veh, ZFP14 / RFU, ACTR2 / Fold change vs veh, ACTR2 / RFU, PPP3R1 / Fold change vs veh, PPP3R1 / RFU, PIK3R1 / Fold change vs veh, PIK3R1 / RFU, HNRNPA1 / Fold change vs veh, HNRNPA1 / RFU, RNF170 / Fold change vs veh, RNF170 / RFU, ZNF28 / Fold change vs veh, ZNF28 / RFU, RNGTT / Fold change vs veh, RNGTT / RFU, OGT / Fold change vs veh, OGT / RFU, BRD1 / Fold change vs veh, BRD1 / RFU, MARS / Fold change vs veh, MARS / RFU, ZNF655 / Fold change vs veh, ZNF655 / RFU, FAHD1 / Fold change vs veh, FAHD1 / RFU, BDP1 / Fold change vs veh, BDP1 / RFU, LRRCC1 / Fold change vs veh, LRRCC1 / RFU, ARID1A / Fold change vs veh, ARID1A / RFU, ZNF146 / Fold change vs veh, ZNF146 / RFU, ZNF330 / Fold change vs veh, ZNF330 / RFU, GPN3 / Fold change vs veh, GPN3 / RFU, C9orf123 / Fold change vs veh, C9orf123 / RFU, N4BP2L2 / Fold change vs veh, N4BP2L2 / RFU, ARFIP1 / Fold change vs veh, ARFIP1 / RFU, FAM179B / Fold change vs veh, FAM179B / RFU, BCL10 / Fold change vs veh, BCL10 / RFU, UHRF1BP1L / Fold change vs veh, UHRF1BP1L / RFU, BET1 / Fold change vs veh, BET1 / RFU, CNOT2 / Fold change vs veh, CNOT2 / RFU, ZNF268 / Fold change vs veh, ZNF268 / Fold change vs veh, ZNF507 / RFU, DGCR2 / Fold change vs veh, DGCR2 / RFU, WDSUB1 / Fold change vs veh, WDSUB1 / Fold change vs veh, HSP90B1 /// MIR3652 / RFU, ADSS / Fold change vs veh, ADSS / RFU, GK / Fold change vs veh, GK / RFU, ZNF148 / Fold change vs veh, ZNF148 / RFU, TAF9 / Fold change vs veh, TAF9 / RFU, SLC1A5 / Fold change vs veh, SLC1A5 / RFU, SLMO2 / Fold change vs veh, SLMO2 / RFU, ABCC4 / Fold change vs veh, ABCC4 / RFU, LOC101060439 /// RAP1B / Fold change vs veh, LOC101060439 /// RAP1B / RFU, RFX7 / Fold change vs veh, RFX7 / RFU, GTPBP10 / Fold change vs veh, GTPBP10 / RFU, CNEP1R1 / Fold change vs veh, CNEP1R1 / RFU, BIVM-ERCC5 /// ERCC5 / Fold change vs veh, BIVM-ERCC5 /// ERCC5 / RFU, ILF3 / Fold change vs veh, ILF3 / RFU 11762660_at / Fold change /veh 11762660_at / RFU VCAN (11757783_s_at) / Fold change /veh VCAN (11757783_s_at) / RFU DDX43 (11728927_at) / Fold change /veh DDX43 (11728927_at) / RFU KRT8 (11758188_x_at) / Fold change /veh KRT8 (11758188_x_at) / RFU NKD1 (11759106_at) / Fold change /veh NKD1 (11759106_at) / RFU SRD5A1 (11742802_a_at) / Fold change /veh SRD5A1 (11742802_a_at) / RFU TPSAB1 /// TPSB2 (11721975_s_at) / Fold change /veh TPSAB1 /// TPSB2 (11721975_s_at) / RFU GSTM3 (11746129_a_at) / Fold change /veh GSTM3 (11746129_a_at) / RFU IL23R (11737362_x_at) / Fold change /veh IL23R (11737362_x_at) / RFU TMEM51 (11727254_a_at) / Fold change /veh TMEM51 (11727254_a_at) / RFU PIWIL2 (11732686_x_at) / Fold change /veh PIWIL2 (11732686_x_at) / RFU ORM1 (11744905_x_at) / Fold change /veh ORM1 (11744905_x_at) / RFU CCDC152 (11743942_at) / Fold change /veh CCDC152 (11743942_at) / RFU ECM1 (11717891_a_at) / Fold change /veh ECM1 (11717891_a_at) / RFU IL23R (11748794_a_at) / Fold change /veh IL23R (11748794_a_at) / RFU TNFAIP8L3 (11732012_x_at) / Fold change /veh TNFAIP8L3 (11732012_x_at) / RFU MBOAT4 (11741988_at) / Fold change /veh MBOAT4 (11741988_at) / RFU 11764193_at / Fold change /veh 11764193_at / RFU TMEM53 (11763286_at) / Fold change /veh TMEM53 (11763286_at) / RFU MAGEB2 (11727129_at) / Fold change /veh MAGEB2 (11727129_at) / RFU TMEM200A (11744735_a_at) / Fold change /veh TMEM200A (11744735_a_at) / RFU CCDC152 (11751479_a_at) / Fold change /veh CCDC152 (11751479_a_at) / RFU FAM211A (11726209_a_at) / Fold change /veh FAM211A (11726209_a_at) / RFU RGS16 (11746705_a_at) / Fold change /veh RGS16 (11746705_a_at) / RFU VCAN (11755009_s_at) / Fold change /veh VCAN (11755009_s_at) / RFU RHOB (11743442_s_at) / Fold change /veh RHOB (11743442_s_at) / RFU RGS16 (11720943_a_at) / Fold change /veh RGS16 (11720943_a_at) / RFU RGS16 (11720944_at) / Fold change /veh RGS16 (11720944_at) / RFU, VPS4B / Fold change vs veh, VPS4B / RFU, CREB1 / Fold change vs veh, CREB1 / RFU, DNAJC13 / Fold change vs veh, DNAJC13 / RFU, GNAQ / Fold change vs veh, GNAQ / RFU, CDK5R1 / Fold change vs veh, CDK5R1 / RFU, ZRANB3 / Fold change vs veh, ZRANB3 / RFU, CUL4A / Fold change vs veh, CUL4A / RFU, CCNY / Fold change vs veh, CCNY / RFU, UFL1 / Fold change vs veh, UFL1 / RFU, COG3 / Fold change vs veh, COG3 / RFU, DIAPH2 / Fold change vs veh, DIAPH2 / RFU, SKA2 / Fold change vs veh, SKA2 / RFU, AFF3 / Fold change vs veh, AFF3 / RFU, LMF1 / Fold change vs veh, LMF1 / RFU, IPO11 / Fold change vs veh, IPO11 / RFU, DFFB / Fold change vs veh, DFFB / RFU, FOXP1 / Fold change vs veh, FOXP1 / RFU, CARD8 / Fold change vs veh, CARD8 / RFU, STRN3 / Fold change vs veh, STRN3 / RFU, ADK / Fold change vs veh, ADK / RFU, RASSF2 / Fold change vs veh, RASSF2 / RFU, WIPF1 / Fold change vs veh, WIPF1 / RFU, LARP1B / Fold change vs veh, LARP1B / RFU, RASA1 / Fold change vs veh, RASA1 / RFU, RB1 / Fold change vs veh, RB1 / RFU, PPFIA1 / Fold change vs veh, PPFIA1 / RFU, MAT2A / Fold change vs veh, MAT2A / RFU, CCT5 / Fold change vs veh, CCT5 / RFU, WDR92 / Fold change vs veh, WDR92 / RFU, CUX1 / Fold change vs veh, CUX1 / RFU, TTC7A / Fold change vs veh, TTC7A / RFU, TMEM135 / Fold change vs veh, TMEM135 / RFU, DEPTOR / Fold change vs veh, DEPTOR / RFU, CPM / Fold change vs veh, CPM / RFU, DNAJB6 / Fold change vs veh, DNAJB6 / RFU, CACNA2D3 / Fold change vs veh, CACNA2D3 / RFU, DTX4 / Fold change vs veh, DTX4 / RFU, TFCP2 / Fold change vs veh, TFCP2 / RFU, GMCL1 /// GMCL1P1 / Fold change vs veh, GMCL1 /// GMCL1P1 / RFU, AEBP2 / Fold change vs veh, AEBP2 / RFU, SNHG1 /// SNORD22 /// SNORD25 /// SNORD26 /// SNORD27 /// SNORD28 /// SNORD29 /// SNORD31 / Fold change vs veh, SNHG1 /// SNORD22 /// SNORD25 /// SNORD26 /// SNORD27 /// SNORD28 /// SNORD29 /// SNORD31 / Fold change (Aza/veh), C12orf56 (ProbeSet 11735607_a_at) / Fold change (ACY-1035/veh), C12orf56 (ProbeSet 11735607_a_at) / Fold change (Aza/veh), FGFR1OP (ProbeSet 11751329_s_at) / Fold change (ACY-1035/veh), FGFR1OP (ProbeSet 11751329_s_at) / Fold change (Aza/veh), VPS36 (ProbeSet 11739960_a_at) / Fold change (ACY-1035/veh), VPS36 (ProbeSet 11739960_a_at) / RFU SYPL1 (11715823_x_at) / Fold change /veh SYPL1 (11715823_x_at) / RFU IGFBP7 (11715501_s_at) / Fold change /veh IGFBP7 (11715501_s_at) / RFU REEP3 (11722064_at) / Fold change /veh REEP3 (11722064_at) / RFU IGLL1 (11728026_x_at) / Fold change /veh IGLL1 (11728026_x_at): dose or concentration left out as unconfirmed
# Settings: ProbeSet 11719185_x_at; LIST B
smiles,measurement,value
Nc1ncn([C@@H]2O[C@H](CO)[C@@H](O)[C@H]2O)c(=O)n1 [azacitidine],"RFU, N4BP2L2",91.08 RFU
